Measured values as given in US20150216865A1, “METHODS OF TREATING A BRUTON'S TYROSINE KINASE DISEASE OR DISORDER” (Celgene Avilomics Research, Inc., priority 2012, published 2015).
Marks after values point to notes of the source that are not given here.

What was measured:
KC = assay: Inflammatory chemokine and cytokine analysis in CIA mice, KC; format: in vivo, mouse
Excerpt: Inflammatory Chemokine and Cytokine Analysis: At the termination of the CIA study, mice were sacrificed and blood was harvested via cardiac punch using EDTA as an anticoagulant. […] Levels of various mouse cytokines in plasma were quantified using Bioplex® Suspension Array System according to manufacturer's instruction (BioRad, mTNFa (171-G5023M), mIL-6 (171-G5007M), mKC (171-G5018M), mIFNg (171-G5017M), mIL-17 (Z60-00006Z2), mIL-1β (171-G5002M), mMCP-1 (171-G5019M).

Btk = target: T1, Btk (Mus musculus, UniProt P35991); assay: Btk occupancy in spleen lysates of CIA mice; format: in vivo
T1 construct: from tissue; host or cells: mouse spleen
Experimental: Spleen Homogenization: Spleens were harvested from mice, frozen immediately in liquid nitrogen and stored at −80° C. To generate spleen lysates, each spleen was sliced in half and lysed using a Precellys 24 Bead Homogenizer in 500 μL of BioRad Bio-Plex Lysis Buffer plus protease inhibitors. Supernatant was transferred to a fresh microfuge tube and stored frozen at −80° C. until analysis.
Btk Target Site Occupancy ELISA: An ELISA method for the detection of free uninhibited Btk in mouse, rat, dog, monkey, and human lysates was developed at Celgene Avilomics Research and a validation of this method in human B cell lysate was performed by a CLIA Certified laboratory (Cambridge Biomedical Laboratories, Boston, Mass.) The parameters that were assessed included: accuracy, linearity, dilution, precision (intra and inter-assay), stability, reference range, freeze-thaw cycles, reportable range, specificity, sensitivity, and carryover. […] Standards and samples were transferred to a streptavidin-coated 96-well ELISA plate and mixed while shaking for 1 h at room temperature. […] After wash, goat α-mouse-HRP (1:5000 dilution in PBS+0.05% Tween-20+0.5% BSA) was added and incubated for 1 h at room temperature. The ELISA was developed with addition of tetramethyl benzidine (TMB) followed by Stop Solution and read at OD 450 nm.
Established Collagen Induced Arthritis Model: Experiments were carried out at Bolder Biopath, Boulder, Colo. All experiments were carried out in compliance with regulations of the Institutional Animal Care and Use Committee and were conducted in accordance with principles and procedures dictated by the highest standards of humane animal care. Dba1 mice were injected at the base of the tail with 150 μL of Freund's Complete Adjuvant (Sigma) containing bovine type II collagen (Elastin Products, Owensville, Mo.) (2 mg/ml) on day 0 and again on day 21. […] Randomization into each group was done after swelling was obviously established in at least one paw, and attempts were made to assure approximately equal mean scores across the groups at the time of enrollment. […] Treatment continued daily (QD at 24 h intervals) through arthritis day 14. […] Clinical scores were assessed for each of the paws on study arthritis days 1-15 using the following scoring system: 0=normal, 1=one hind or fore paw joint affected or minimal diffuse erythema and swelling, 2=two hind or fore paw joints affected or mild diffuse erythema and swelling, 3=three hind or fore paw joints affected or moderate diffuse erythema and swelling, 4=marked diffuse erythema and swelling or =four digit joints affected, 5=severe diffuse erythema and severe swelling entire paw, unable to flex digits.

[1] = tested on: semi-established CIA Dba1 mice; assay: Semi-established collagen induced arthritis (CIA) model; format: in vivo, mouse; conditions: 3 mg/kg, 10 mg/kg or 30 mg/kg daily
Experimental: Semi-Established Collagen Induced Arthritis (CIA) Arthritis Model. Experiments were carried out at Bolder Biopath, Boulder, Colo. All experiments were carried out in compliance with regulations of the Institutional Animal Care and Use Committee and were conducted in accordance with principles and procedures dictated by the highest standards of humane animal care. Dba1 mice were injected at the base of the tail with 150 μL of Freund's Complete Adjuvant (Sigma) containing bovine type II collagen (Elastin Products, Owensville, Mo.) (2 mg/ml) on day 0 and again on day 21. Mice were randomized into treatment groups on study day 21, and treatment was initiated. Treatment continued daily (3 mg/kg, 10 mg/kg or 30 mg/kg QD at 24 hour intervals) through day 33, and mice were terminated on day 33 (animals 1-6) or day 34 (animals 7-12). Onset of arthritis occurred between study days 21 and 34. Clinical scores were assessed for each of the paws on study days 21-34 using the following scoring system: 0=normal, 1=one hind or fore paw joint affected or minimal diffuse erythema and swelling, 2=two hind or fore paw joints affected or mild diffuse erythema and swelling, 3=three hind or fore paw joints affected or moderate diffuse erythema and swelling, 4=marked diffuse erythema and swelling or =four digit joints affected, 5=severe diffuse erythema and severe swelling entire paw, unable to flex digits. Spleens and plasma were harvested at necropsy (day 33 for animals 1-6 and day 34 for animals 7-12) and paws were removed and fixed in formalin for histopathological analysis.

male NOD mice [2] = assay: NOD mouse model, lachrymal gland histopathology; format: in vivo; conditions: 20 weeks of age
Excerpt: (§1) Histopathology. Samples of lachrymal gland and salivary glands from all animals were fixed for Haematoxylin & Eosin histological analysis. Sections were inspected blind by a qualified histopathologist and scored for signs of pathology according to a semi-quantitative scoring system. This system is based on the mean number of inflammatory foci comprising 50 or more mononuclear inflammatory cells per objective field. The ratio of infiltrated to normal glandular tissue was expressed on a five point scale.
Lachrymal Gland Histopathology. Lachrymal glands from Control BALB/c mice (n=12 mice) and vehicle-treated NOD mice (n=9 mice) were examined and scored, in order to validate the model. For each animal, one section from the right lachrymal gland and one section from the left lachrymal gland were prepared. Sections were examined and scored for two criteria:
(i) Focus Score. The mean number of inflammatory foci comprising ≧50 mononuclear inflammatory cells per ×10 objective field was counted. Five such fields were assessed (where possible) to derive this index and these are selected to contain the maximum number of such foci. Where the overall area of the tissue section was less than five fields, the number of ×10 objective fields was recorded and used to determine the focus score. (ii) Area Score. […]

male NOD mice [3] = assay: NOD mouse model, salivary gland histopathology; format: in vivo; conditions: 20 weeks of age
Excerpt: as §1
(i) Focus Score. The mean number of inflammatory foci comprising ≧50 mononuclear inflammatory cells per ×10 objective field was counted. Five such fields were assessed (where possible) to derive this index and these are selected to contain the maximum number of such foci. Where the overall area of the tissue section was less than five fields, the number of ×10 objective fields was recorded and used to determine the focus score. (ii) Area Score. The ratio of infiltrated to normal glandular tissue was expressed on a five point scale: • 0: No infiltrates • 1: 0-25% of the tissue section infiltrated • 2: 26-50% of the tissue section infiltrated • 3: 51-75% of the tissue section infiltrated • 4: 76-100% of the tissue section infiltrated
Salivary Gland Histopathology. […] Sections were examined and scored for two criteria: Focus Score and Area Score as outlined above.

T1 sequence (P35991 whole entry): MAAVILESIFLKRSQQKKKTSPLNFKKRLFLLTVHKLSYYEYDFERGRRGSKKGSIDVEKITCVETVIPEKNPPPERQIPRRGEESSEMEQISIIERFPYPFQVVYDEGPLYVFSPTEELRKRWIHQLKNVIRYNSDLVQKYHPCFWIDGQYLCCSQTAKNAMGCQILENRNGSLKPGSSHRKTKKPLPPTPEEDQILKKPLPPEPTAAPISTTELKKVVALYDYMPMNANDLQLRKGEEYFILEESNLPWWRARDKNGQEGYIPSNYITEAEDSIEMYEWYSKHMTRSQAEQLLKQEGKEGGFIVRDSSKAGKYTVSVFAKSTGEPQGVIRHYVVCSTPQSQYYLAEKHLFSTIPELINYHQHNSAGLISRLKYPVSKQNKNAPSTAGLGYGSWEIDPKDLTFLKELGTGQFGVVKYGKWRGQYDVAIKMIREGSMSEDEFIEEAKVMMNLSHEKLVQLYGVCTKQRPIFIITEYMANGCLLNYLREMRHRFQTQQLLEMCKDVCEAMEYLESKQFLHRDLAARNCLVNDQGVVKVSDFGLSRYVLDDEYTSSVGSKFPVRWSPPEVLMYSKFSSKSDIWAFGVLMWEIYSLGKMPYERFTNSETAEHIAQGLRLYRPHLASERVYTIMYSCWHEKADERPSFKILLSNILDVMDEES

C=CC(=O)Nc1cccc(Nc2nc(Nc3ccc(OCCOC)cc3)ncc2F)c1 [Compound 1 besylate, N-(3-(5-fluoro-2-(4-(2-methoxyethoxyl)phenylamino)pyrimidin-4-ylamino)phenyl)acrylamide besylate]
KC mean (KC; 3 mg/kg): 62.0 pg/mL
KC mean (KC; 10 mg/kg): 31.1* pg/mL
KC mean (KC; 30 mg/lkg): 17.5* pg/mL
Btk occupancy in spleen (Btk; 30 mg/kg, 2 hours after last dose, besylate): 95%
drug-free Btk protein re-synthesized, % of pre-dose levels (Btk; 24 hours after a 10 mg/kg dose): approximately 60%
Btk occupancy in spleen (Btk; 24 hours after the 3 mg dose): 19%
Btk occupancy in spleen (Btk; 24 hours, dose level 10 mg): > 40%
Btk occupancy in spleen (Btk; 24 hours, dose level 30 mg): > 40%
receptor occupancy at 3 mg/kg (Btk; mouse, 3 mg/kg, 2 hours after last dose): 34%
receptor occupancy at 10 mg/kg (Btk; mouse, 10 mg/kg, 2 hours after last dose): 84%
receptor occupancy at 30 mg/kg (Btk; mouse, 30 mg/kg, 2 hours after last dose): 97%
effect on clinical parameters of developing type II collagen arthritis [1]: significant beneficial effect
lachrymal gland Area Score (proportion of infiltrated glandular tissue) vs vehicle (male NOD mice [2]): did not reduce
lachrymal gland Focus Score (number of inflammatory foci) vs vehicle (male NOD mice [2]): did not reduce
salivary gland Area Score (proportion of infiltrated glandular tissue) vs vehicle (male NOD mice [3]): did not reduce
salivary gland Focus Score (number of inflammatory foci) vs vehicle (male NOD mice [3]): did not reduce
